Data on three compounds can be found in patent US20120309734A1, “COMBRETASTATIN DERIVATIVES AND USES THEREFOR” (priority 2009, published 2012).

Read-outs that look alike come from different tables or passages of the source.

One series addresses T1, p-glycoprotein (Homo sapiens, UniProt P08183).
T1 construct: HL-60-MDR (overexpress p-glycoprotein); endogenous in cells; host or cells: HL-60-MDR, A2780-ADR
The series is described as follows: Anti-proliferative effects in multi-drug resistant cells, conclusion on efflux. In kind it is cell-based. Conditions: concluded from resistance factors.

For a further series, the system named is A2780-parental. As to the kind of experiment: Alamar Blue cell viability assay. The class given is cell-based. As to conditions: 72 h.
Series [1] concerns human promyelocytic leukaemia HL-60 cells. The series is described as follows: MTT cell viability assay. Conditions: read-out: Inhibition of cell viability (IC50 value, nM) HL-60. In kind it is cell-based. (In general: Tetrazolium dyes change colour on reduction, which living cells bring about.)
The subject of series [2] is normal mouse mammary epithelial cells. As to the kind of experiment: Viability of normal mammary epithelial cells. In kind it is cell-based. As to conditions: 72 hr treatment.
Series [3] shares this test system. As to the kind of experiment: Viability of normal mammary epithelial cells. The class given is cell-based. As to conditions: for Percent viability of normal mammary epithelial cells compared to control: 10 nM, 72 hr treatment; for effects on normal mammary epithelial cells: up to 10 μM. The protocol: The maximum toxicity elicited by these drugs on normal cells at a concentration of 10 nM was only 8% (see Table 4).

The subject of a further series is HL-60-MDR(PGP). As to the kind of experiment: Alamar Blue cell viability assay. The class given is cell-based, human. For orientation: Resazurin is reduced to fluorescent resorufin, in cell work by metabolically active cells.
Another series concerns A2780-ADR (PGP). The series is described as follows: Alamar Blue cell viability assay.
Series [4] relates to human chronic myeloid leukaemia K562 cells. The series is described as follows: MTT cell viability assay. As to conditions: read-out: Inhibition of cell viability (IC50 value, nM) K562. The class given is cell-based.
For another series, the system named is HL-60 parental. As to the kind of experiment: Alamar Blue cell viability assay. The class given is cell-based. Conditions: Homo sapiens, 72 h.
The next series relates to HL-60-BCRP. As to the kind of experiment: Alamar Blue cell viability assay.
Series [5] has as its system primary CML cells (BCR-ABL-positive). As to the kind of experiment: Apoptosis in ex vivo CML cells, annexin V staining. In kind it is cell-based, human. Conditions: 72 h. The text has this: This study is the first pre-clinical evaluation of combretastatins in the treatment of chemotherapy naive and patients with acquired imatinib mesylate resistance (refractory or relapsed disease despite adequate dose and duration). Imatinib mesylate is the first line treatment in BCR-ABL-positive CML chemotherapy. BCR-ABL, a constitutively active protein tyrosine kinase is a product of the Philadelphia chromosome (Ph) translocation t(9;22) and plays a central role in the pathogenesis of CML. […] All cells were treated with a clinically achievable concentration of imatinib mesylate (indicated as STI in FIG. 3) [250 nM]. […] The percentage apoptosis was determined by flow cytometric analysis of annexin-V stained cells.
The percentage of apoptosis in ex-vivo CML cells was determined by annexin V staining. […] Cells were collected by centrifugation at 400×g for 5 min and resuspended in anti-CD-45 diluted 1:50 in RPMI medium. Following a 10 min incubation in the dark at room temperature, cells were centrifuged and washed in Annexin binding buffer (Biosource, Nivelles, Belgium). Cells were again centrifuged and resuspended in Annexin-V-FITC (IQ products, Netherlands) diluted in Annexin binding buffer (1:50). Samples were next incubated in the dark on ice for 15 min. Annexin binding buffer (1 ml) was added to each sample. Samples were collected by centrifugation and resuspended in 0.5 ml of Annexin binding buffer. Cells were read immediately by flow cytometry and analysed by Cellquest software. CML cells were selected and gated based on their low to medium side scatter and low CD45 expression.

Series [6] relates to MCF-7 breast cancer cell line. As to the kind of experiment: Antiproliferation study, MTT cell viability assay. As to conditions: Homo sapiens. In kind it is cell-based. The protocol: All assays were performed in triplicate for the determination of mean values reported. Compounds were assayed as the free bases isolated from reaction. The human breast tumour cell line MCF-7 was cultured in Eagles minimum essential medium in a […] atmosphere with 10% fetal bovine serum, 2 mM L-glutamine and 100 μg/mL penicillin/streptomycin. The medium was supplemented with 1% non-essential amino acids. MDA-MB-231 cells were maintained in Dulbecco's Modified Eagle's medium (DMEM), supplemented with 10% (v/v) Fetal bovine serum, 2 mM L-glutamine and 100 μg/mL penicillin/streptomycin (complete medium). Cells were trypsinised and seeded at a density of 2.5×10^4 cells/ml in a 96-well plate and incubated at 37° C., […] atmosphere for 24 h. […] Control wells contained the equivalent volume of the vehicle ethanol (1% v/v). The culture medium was then removed and the cells washed with 100 μL phosphate buffered saline (PBS) and 50 μL MTT added, to reach a final concentration of 1 mg/mL MTT added. Cells were incubated for 2 h in darkness at 37° C. At this point solubilization was begun through the addition of 200 μL DMSO and the cells maintained at room temperature in darkness for 20 min to ensure thorough colour diffusion before reading the absorbance. The absorbance value of control cells (no added compound) was set to 100% cell viability and from this graphs of absorbance versus cell density per well were prepared to assess cell viability and from these, graphs of percentage cell viability versus concentration of subject compound added were drawn.

Series [7] is described as follows: In vitro stability in plasma. In kind it is in vitro ADME. Conditions: human plasma.
Where [8] appears, read: MCF7, 72 h, antiproliferative activity, MTT, 72 h, read-out: IC50 (μM) MCF-7 cell line.

T1 sequence (P08183 whole entry): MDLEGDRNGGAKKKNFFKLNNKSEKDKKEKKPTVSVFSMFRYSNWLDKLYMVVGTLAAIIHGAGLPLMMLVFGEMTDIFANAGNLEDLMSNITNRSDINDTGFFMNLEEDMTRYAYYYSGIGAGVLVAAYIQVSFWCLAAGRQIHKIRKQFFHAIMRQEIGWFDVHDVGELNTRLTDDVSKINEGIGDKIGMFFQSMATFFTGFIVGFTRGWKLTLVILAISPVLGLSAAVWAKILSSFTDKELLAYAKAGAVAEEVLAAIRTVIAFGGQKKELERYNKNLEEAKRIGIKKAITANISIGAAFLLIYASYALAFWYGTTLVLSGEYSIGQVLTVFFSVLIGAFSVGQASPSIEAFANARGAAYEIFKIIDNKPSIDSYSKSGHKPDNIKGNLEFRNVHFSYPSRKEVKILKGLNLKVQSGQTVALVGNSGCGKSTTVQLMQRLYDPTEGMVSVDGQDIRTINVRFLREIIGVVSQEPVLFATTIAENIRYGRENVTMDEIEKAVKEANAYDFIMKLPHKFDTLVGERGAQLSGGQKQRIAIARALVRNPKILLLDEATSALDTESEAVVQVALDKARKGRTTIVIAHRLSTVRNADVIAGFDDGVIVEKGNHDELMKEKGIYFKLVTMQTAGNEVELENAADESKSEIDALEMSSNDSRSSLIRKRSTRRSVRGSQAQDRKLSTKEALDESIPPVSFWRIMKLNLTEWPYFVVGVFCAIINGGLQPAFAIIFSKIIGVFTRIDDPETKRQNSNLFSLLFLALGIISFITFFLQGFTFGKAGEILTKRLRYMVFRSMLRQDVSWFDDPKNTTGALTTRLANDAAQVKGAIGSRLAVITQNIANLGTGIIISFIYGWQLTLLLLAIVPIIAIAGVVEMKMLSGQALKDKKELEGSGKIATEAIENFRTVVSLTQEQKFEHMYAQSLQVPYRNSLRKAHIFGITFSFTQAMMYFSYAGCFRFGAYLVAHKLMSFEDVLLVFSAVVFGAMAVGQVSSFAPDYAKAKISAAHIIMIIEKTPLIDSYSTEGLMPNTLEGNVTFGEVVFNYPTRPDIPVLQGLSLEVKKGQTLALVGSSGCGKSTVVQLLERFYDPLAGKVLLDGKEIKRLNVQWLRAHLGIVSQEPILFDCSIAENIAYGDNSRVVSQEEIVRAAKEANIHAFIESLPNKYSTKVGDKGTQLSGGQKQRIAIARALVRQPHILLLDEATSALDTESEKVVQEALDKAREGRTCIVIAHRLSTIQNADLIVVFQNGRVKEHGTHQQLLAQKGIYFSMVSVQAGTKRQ
Procedure for A2780-ADR (PGP): (§1) Three drug resistant cell lines and respective parental cell lines were assessed. […] Western blot analysis confirmed the overexpression of p-glycoprotein and BCRP in respective cell lines.
(§2) Cells were exposed to multiple concentrations of the indicated compound for 72 h. Cell viability was assessed using the Alamar blue assay and respective IC50 values were calculated. The resistance factor (RF) was calculated by dividing the IC50 of the resistant cell line/IC50 of the parental cell line.
(§3) All cells were cultured in RPMI-1640 Glutamax medium supplemented with 10% FCS media, 100 units/ml penicillin and 100 μg/mIstreptomycin. Cells were maintained at 37° C. in 5% CO2 in a humidified incubator.
(§4) The reduction of Alamar Blue is proportional to the number of viable cells. Cells (200 μl) were plated in triplicate in a 96-well plates (K562, 100,000/ml; HL-60, 300,000/ml; A-2780 50,000/ml). A-2780 cells were plated 24 h prior to treatment. Suspension cells were plated in the log phase of growth and treated immediately. The cells were then treated with either medium alone, vehicle (1% ethanol v/v or 0.1% DMSO v/v) or with a range of concentrations of drug [0.001-10 μM]. After 72 h, Alamar Blue was added to each well (10% of final volume) and fluorescence was read using a 96-well fluorometer with excitation at 530 nm and emission of 590 nm. The blank solution consisted of medium and Alamar Blue and the blank solution was used to calibrate the spectrophotometer to zero absorbance. The relative cell viability (%) related to control wells and was calculated by [A]test/[A]control×100 where [A]test is the absorbance of the drug treated cells and [A]control the absorbance of the vehicle control treated cells. Dose response curves were plotted and IC50 values (concentration of drug resulting in 50% reduction in cell survival) were obtained using the commercial software package Prism (GraphPad Software, Inc., La Jolla, USA). Experiments were performed in triplicate on at least three separate occasions.
Procedure for A2780-parental: as §2
(§5) A2780-parental and A2780-ADR resistant cells were provided by the Beatson Institute of Cancer Research, Glasgow. […] All cells were cultured in RPMI-1640 Glutamax medium supplemented with 10% FCS media, 100 units/ml penicillin and 100 μg/mIstreptomycin. Cells were maintained at 37° C. in 5% CO2 in a humidified incubator.
as §4
Procedure for HL-60 parental: as §2, §5, §4
Procedure for HL-60-BCRP: as §1, §2, §3, §4
Procedure for HL-60-MDR(PGP): as §1, §2, §3, §4
Procedure for p-glycoprotein: as §1, §2

In general, IC50 refers to the concentration that inhibits the measured activity by half. Take `COc1ccc(/C=C\c2cc(OC)c(OC)c(OC)c2)cc1O` [CA-4, combretastatin A-4, reference compound]: the “substrate for the p-glycoprotein” value at p-glycoprotein was “poor substrates for the p-glycoprotein”. The 50% inhibitory concentration (IC50) in the series on A2780-parental was found to be 7.5 nM; in [1] it was 4.1 nM; with HL-60-MDR(PGP) (Homo sapiens, HL60/MDR, 72 h), 3.3 nM; with A2780-ADR (PGP) (A2780 ADR, 72 h), 6.8 nM; in [4], 3.8 nM; with HL-60 parental it was 4.5 nM. This compound also gave a 50% inhibitory concentration (IC50) in the series with HL-60-BCRP (Homo sapiens, 72 h) of 3.5 nM. In addition, the “Percent viability of normal mammary epithelial cells compared to control” value in series [2] (1 nM) is 98%; in [2] (100 nM) it was 74.8%; in series [2] (1 μM), 74.7%; in series [2] (10 μM), 75.0%; in series [3], 92%. Besides, the “effects on normal mammary epithelial cells” value in series [3] is given as “minimal effects”. The results for the RF in the series with HL-60-MDR(PGP) (IC50 HL-60-MDR(PGP) / IC50 HL-60 parental), with A2780-ADR (PGP) (IC50 A2780-ADR (PGP) / IC50 A2780-parental) and in the series on HL-60-BCRP (IC50 HL-60-BCRP / IC50 HL-60 parental) were 0.73, 0.9 and 0.8, respectively. Further, the “apoptosis induction compared with imatinib mesylate” value in series [5] (250 nM each, patient samples) is “more effective inducers of apoptosis than imatinib mesylate”. Further, the “apoptosis in primary CML cells” value in series [5] (250 nM, chemotherapy naïve (4 samples) and imatinib mesylate resistant (2 samples)) is “induced apoptosis”.
Usually half-life stands for how long it takes for the measured level to halve. Lower therefore signals fast loss. In the case of `COc1ccc(C2C(Oc3ccccc3)C(=O)N2c2cc(OC)c(OC)c(OC)c2)cc1O` (stereo not shown) [Compound 1, 4-(3-Hydroxy-4-methoxy-phenyl)-3-phenoxy-1-(3,4,5-trimethoxy-phenyl)-azetidin-2-one], the 50% inhibitory concentration (IC50) in series [6] (setting [8]) was determined as 0.038 µM. Also, in series [7], the half-life was 35 h.
Turning to `C=CC1C(=O)N(c2cc(OC)c(OC)c(OC)c2)C1c1ccc(OC)c(O)c1` (stereo not shown) [Compound 2, 4-(3-Hydroxy-4-methoxy-phenyl)-1-(3,4,5-trimethoxy-phenyl)-3-vinyl-azetidin-2-one], the IC50 in series [1] was 17.1 nM; in series [6] (setting [8]), 0.0014 µM; in series [6] (MCF7, MTT cell viability assay, read-out: Inhibition of cell viability (IC50 value, nM) MCF-7) it was 0.0008 to 0.0031 µM; in series [4] it was 26.6 nM. For the same compound, the “Percent viability of normal mammary epithelial cells compared to control” value in series [2] (1 nM) is listed as 93.1%; in [2] (100 nM), 74.4%; in [2] (1 μM), 73.0%; in series [2] (10 μM) it was 73.8%; in series [3], 92.3%. In addition, the “effects on normal mammary epithelial cells” value in series [3] was “minimal effects”.
